From US9745325B2, “Fused heterocyclic compound” (Takeda Pharmaceutical Company Limited, priority 2014, dated 2017)
Where a name gives a salt, the structure may show the parent alone.

Columns and labels:
[1] = target: T1, CDK8/CycC (Homo sapiens, UniProt P49336); assay: CDK8 inhibitory activity (Kinase Tracer-236 / Eu-anti-GST fluorescence assay); assay type: binding; parameters: Percent inhibition of CDK8 activity (%): concentration or dose not given beside the values; settings: test compound concentration given as '1 1.1.1\4' [sic]
T1 construct: purchased Carna Biosciences
Procedure: (§1) The compound of the present invention was evaluated for its CDK8 inhibitory activity and CDK19 inhibitory activity by the following method. […] The primary diluted solution was dispensed in the amount of 2 μL/well to a 384-well plate, and then, a mixed solution of Eu^3+ Cryptate conjugated mouse monoclonal antibody anti-glutathione S-transferase (Cisbio) diluted 267-fold with an assay buffer and 60 nM Kinase Tracer-236 (Life technologies) was added thereto at 2 μL/well. […] After the addition, the plate was left standing at room temperature for 1 hour, and then, the fluorescence intensity (excitation wavelength 320 nm, fluorescence wavelength 615 nm, 665 nm, delay time 50 μsec) was measured using ann EnVision plate reader (PerkinElmer). The percent inhibition of CDK8 or CDK19 activity by the test compound can be calculated according to the following formula, wherein the fluorescence intensity of a reaction solution in the absence of compound is defined as the control, and the fluorescence intensity of a reaction solution in the presence of 10 μM of control compound is defined as the blank.

[2] = target: T2, CDC2L6/CycC (CDK19) (Homo sapiens, UniProt Q9BWU1); assay: CDK19 inhibitory activity (Kinase Tracer-236 / Eu-anti-GST fluorescence assay); assay type: binding; parameters: Percent inhibition of CDK19 activity (%): concentration or dose not given beside the values; settings: test compound concentration given as '1 1.1.1\4' [sic]
T2 construct: purchased Carna Biosciences Inc
Procedure: as §1

[3] = tested on: human multiple myeloma RPMI8226 cells; assay: Inhibitory activity against human multiple myeloma RPMI8226 cell growth (CellTiter-Glo); assay type: cell-based; settings: Homo sapiens, RPMI-8226, 192 h, 1 μM test compound, cultured for 8 days; read-out: Percent inhibition of RPMI8226 cell growth (%)
Procedure: The compound of the present invention was evaluated for its inhibitory activity against human multiple myeloma RPMI8226 cell growth by the following method.
A suspension of human multiple myeloma RPMI8226 cells (purchased from the Health Protection Agency) was inoculated at 40 μL (300 cells/well) to a 384-well plate and cultured at 37° C. for 1 day in a 5% CO2 incubator. After the culture, each test compound solution was added thereto at a test concentration of 1 μM using TECAN D300, and the cells were further cultured for 8 days. After the culture, CellTiter-Glo™ Luminescent Cell Viability Assay reagent (Promega) was added at 40 μL/well to a 384-well plate, and the amount of luminescence was measured using a luminometer. Inhibitory activity against human multiple myeloma RPMI8226 cell growth (percent inhibition (%)) of the test compound was calculated according to the following formula, which is based on the hypothesis that the amount of residual ATP reflects the number of cells. In this formula, 100% control represents the amount of luminescence from a well with only 0.1% DMSO added. Percent inhibition (%)=(1−(amount of luminescence of the test compound)÷(100% control))×100

T2 sequence (Q9BWU1 whole entry): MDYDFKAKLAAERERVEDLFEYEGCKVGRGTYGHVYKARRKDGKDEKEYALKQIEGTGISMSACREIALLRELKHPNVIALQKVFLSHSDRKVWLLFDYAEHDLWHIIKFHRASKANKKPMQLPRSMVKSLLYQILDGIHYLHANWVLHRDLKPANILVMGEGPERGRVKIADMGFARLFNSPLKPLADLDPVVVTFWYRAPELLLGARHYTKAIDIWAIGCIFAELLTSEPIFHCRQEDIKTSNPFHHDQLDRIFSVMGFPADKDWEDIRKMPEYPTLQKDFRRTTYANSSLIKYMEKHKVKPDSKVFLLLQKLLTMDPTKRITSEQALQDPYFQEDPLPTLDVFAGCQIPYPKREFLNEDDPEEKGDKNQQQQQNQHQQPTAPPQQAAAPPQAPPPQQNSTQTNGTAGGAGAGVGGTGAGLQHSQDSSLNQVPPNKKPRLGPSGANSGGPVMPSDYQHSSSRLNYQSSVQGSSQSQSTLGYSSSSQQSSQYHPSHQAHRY
T2 sequence (P24863 whole entry partner): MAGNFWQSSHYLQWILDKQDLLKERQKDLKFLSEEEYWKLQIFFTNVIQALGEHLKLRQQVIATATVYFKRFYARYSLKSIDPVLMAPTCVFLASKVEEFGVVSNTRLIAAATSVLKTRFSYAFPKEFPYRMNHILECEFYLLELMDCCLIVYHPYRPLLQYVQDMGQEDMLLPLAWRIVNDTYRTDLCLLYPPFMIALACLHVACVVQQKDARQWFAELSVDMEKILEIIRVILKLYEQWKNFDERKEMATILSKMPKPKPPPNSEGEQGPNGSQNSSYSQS
T1 sequence (P49336 whole entry): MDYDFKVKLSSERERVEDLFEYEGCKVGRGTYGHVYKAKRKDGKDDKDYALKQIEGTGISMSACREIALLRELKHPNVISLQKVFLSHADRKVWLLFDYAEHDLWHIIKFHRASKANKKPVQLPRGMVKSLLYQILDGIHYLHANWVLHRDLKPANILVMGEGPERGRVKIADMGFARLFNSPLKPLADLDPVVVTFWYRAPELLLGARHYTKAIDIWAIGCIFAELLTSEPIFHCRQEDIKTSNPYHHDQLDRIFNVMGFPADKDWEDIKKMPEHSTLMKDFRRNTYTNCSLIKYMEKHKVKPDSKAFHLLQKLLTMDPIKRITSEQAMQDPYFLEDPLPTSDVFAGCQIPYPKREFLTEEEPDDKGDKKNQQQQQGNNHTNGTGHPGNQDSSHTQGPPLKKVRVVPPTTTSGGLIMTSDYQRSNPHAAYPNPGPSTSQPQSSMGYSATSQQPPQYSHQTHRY
T1 sequence (P24863 whole entry partner): as the sequence (P24863 whole entry partner) above

CNc1ccc(Oc2sc(C(N)=O)c3c2-c2sncc2CC3)c(C)n1 [Example 27, 8-((2-Methyl-6-(methylamino)pyridin-3-yl)oxy)-4,5-dihydrothieno[3,4-g][1,2]benzothiazole-6-carboxamide monohydrochloride]
Percent inhibition of CDK8 activity (%) [1]: 102%
Percent inhibition of CDK19 activity (%) [2]: 102%
inhibition at 1 µM [3]: 81%

CC(=O)N(C)c1ccc(Oc2sc(C(N)=O)c3c2-c2sncc2CC3)c(C)n1 [Example 28, 8-((6-(Acetyl(methyl)amino)-2-methylpyridin-3-yl)oxy)-4,5-dihydrothieno[3,4-g][1,2]benzothiazole-6-carboxamide]
Percent inhibition of CDK8 activity (%) [1]: 101%
Percent inhibition of CDK19 activity (%) [2]: 99%
inhibition at 1 µM [3]: 63%

Cc1nc(N)ccc1Oc1sc(C(N)=O)c2c1-c1sncc1CC2 [Example 29, 8-((6-Amino-2-methylpyridin-3-yl)oxy)-4,5-dihydrothieno[3,4-g][1,2]benzothiazole-6-carboxamide]
Percent inhibition of CDK8 activity (%) [1]: 98%
Percent inhibition of CDK19 activity (%) [2]: 100%
inhibition at 1 µM [3]: 70%

Cc1nc(NC(=O)C2CC2)ccc1Oc1sc(C(N)=O)c2c1-c1sncc1CC2 [Example 30, 8-((6-((Cyclopropylcarbonyl)amino)-2-methylpyridin-3-yl)oxy)-4,5-dihydrothieno[3,4-g][1,2]benzothiazole-6-carboxamide]
Percent inhibition of CDK8 activity (%) [1]: 104%
Percent inhibition of CDK19 activity (%) [2]: 102%
inhibition at 1 µM [3]: 71%

Cc1nc(NC(=O)C2(O)CC2)ccc1Oc1sc(C(N)=O)c2c1-c1sncc1CC2 [Example 31, 8-((6-(((1-Hydroxycyclopropyl)carbonyl)amino)-2-methylpyridin-3-yl)oxy)-4,5-dihydrothieno[3,4-g][1,2]benzothiazole-6-carboxamide]
Percent inhibition of CDK8 activity (%) [1]: 103%
Percent inhibition of CDK19 activity (%) [2]: 101%
inhibition at 1 µM [3]: 59%

NC(=O)c1sc(Oc2ccc(=O)[nH]c2)c2c1CCc1cnsc1-2 [Example 33, 8-((6-Oxo-1,6-dihydropyridin-3-yl)oxy)-4,5-dihydrothieno[3,4-g][1,2]benzothiazole-6-carboxamide]
Percent inhibition of CDK8 activity (%) [1]: 101%
Percent inhibition of CDK19 activity (%) [2]: 99%
inhibition at 1 µM [3]: 69%

CON(C)C(=O)c1sc(Oc2cccnc2C)c2c1CCc1cnsc1-2 [Example 34, N-Methoxy-N-methyl-8-((2-methylpyridin-3-yl)oxy)-4,5-dihydrothieno[3,4-g][1,2]benzothiazole-6-carboxamide]
Percent inhibition of CDK8 activity (%) [1]: 100%
Percent inhibition of CDK19 activity (%) [2]: 98%
inhibition at 1 µM [3]: 50%

Cc1ncccc1Oc1sc(C(=O)Nc2ncco2)c2c1-c1sncc1CC2 [Example 37, 8-((2-Methylpyridin-3-yl)oxy)-N-(1,3-oxazol-2-yl)-4,5-dihydrothieno[3,4-g][1,2]benzothiazole-6-carboxamide]
Percent inhibition of CDK8 activity (%) [1]: 95%
Percent inhibition of CDK19 activity (%) [2]: 94%
inhibition at 1 µM [3]: 73%

Cc1ncccc1Oc1sc(C(=O)NO)c2c1-c1sncc1CC2 [Example 38, N-Hydroxy-8-((2-methylpyridin-3-yl)oxy)-4,5-dihydrothieno[3,4-g][1,2]benzothiazole-6-carboxamide]
Percent inhibition of CDK8 activity (%) [1]: 97%
Percent inhibition of CDK19 activity (%) [2]: 100%
inhibition at 1 µM [3]: 67%

CC(=O)c1sc(Oc2cccnc2C)c2c1CCc1cnsc1-2 [Example 39, 1-(8-((2-Methylpyridin-3-yl)oxy)-4,5-dihydrothieno[3,4-g][1,2]benzothiazol-6-yl)ethanone]
Percent inhibition of CDK8 activity (%) [1]: 97%
Percent inhibition of CDK19 activity (%) [2]: 95%
inhibition at 1 µM [3]: 60%

Cc1ncccc1Oc1sc(C#N)c2c1-c1sncc1CC2 [Example 40, 8-((2-Methylpyridin-3-yl)oxy)-4,5-dihydrothieno[3,4-g][1,2]benzothiazole-6-carbonitrile]
Percent inhibition of CDK8 activity (%) [1]: 69%
Percent inhibition of CDK19 activity (%) [2]: 58%
inhibition at 1 µM [3]: 61%
